PubChem BioAssay (NCI)
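Exposure lasted 48 hours, with cells grown in 96-well plates and compounds tested at five concentrations. Abbreviation: GI50, concentration required for 50% inhibition of growth. TGI is the concentration that stops growth completely.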

How the values were obtained:
Assay in all cases: NCI-60 cell line screen, 48 h
SK-OV-3 ovarian = test system: SK-OV-3 ovarian
COLO 205 colon = test system: COLO 205 colon
NCI-H23 lung = test system: NCI-H23 lung
HCT-15 colon = test system: HCT-15 colon
MDA-MB-435 = test system: MDA-MB-435
RPMI-8226 leukemia = test system: RPMI-8226 leukemia
TK-10 renal = test system: TK-10 renal
HOP-92 NSCLC = test system: HOP-92 NSCLC
SNB-19 CNS = test system: SNB-19 CNS
M14 melanoma = test system: M14 melanoma
SW-620 colon = test system: SW-620 colon
HS 578T breast = test system: HS 578T breast
U251 CNS = test system: U251 CNS
786-0 renal = test system: 786-0 renal
UACC-62 melanoma = test system: UACC-62 melanoma
DU-145 prostate = test system: DU-145 prostate
SNB-75 CNS = test system: SNB-75 CNS
SR leukemia = test system: SR leukemia
NCI/ADR-RES ovarian = test system: NCI/ADR-RES ovarian
SK-MEL-28 melanoma = test system: SK-MEL-28 melanoma
UO-31 renal = test system: UO-31 renal
ACHN renal = test system: ACHN renal
A549 NSCLC = test system: A549 NSCLC
HOP-62 NSCLC = test system: HOP-62 NSCLC
LOX IMVI melanoma = test system: LOX IMVI melanoma
SF-295 CNS = test system: SF-295 CNS
PC-3 prostate = test system: PC-3 prostate
OVCAR-8 ovarian = test system: OVCAR-8 ovarian
T-47D breast = test system: T-47D breast
MOLT-4 leukemia = test system: MOLT-4 leukemia
HCC-2998 colon = test system: HCC-2998 colon
SK-MEL-2 melanoma = test system: SK-MEL-2 melanoma
HCT-116 colon = test system: HCT-116 colon
MDA-MB-231 breast = test system: MDA-MB-231 breast
KM12 colon = test system: KM12 colon
MALME-3M melanoma = test system: MALME-3M melanoma
NCI-H226 lung = test system: NCI-H226 lung
SN12C renal = test system: SN12C renal
SF-268 CNS = test system: SF-268 CNS
OVCAR-4 ovarian = test system: OVCAR-4 ovarian
SK-MEL-5 melanoma = test system: SK-MEL-5 melanoma
NCI-H522 lung = test system: NCI-H522 lung
CAKI-1 renal = test system: CAKI-1 renal
EKVX NSCLC = test system: EKVX NSCLC
K-562 leukemia = test system: K-562 leukemia
IGROV1 ovarian = test system: IGROV1 ovarian
MCF7 breast = test system: MCF7 breast
NCI-H460 lung = test system: NCI-H460 lung
OVCAR-5 ovarian = test system: OVCAR-5 ovarian
HT29 colon = test system: HT29 colon
OVCAR-3 ovarian = test system: OVCAR-3 ovarian
CCRF-CEM leukemia = test system: CCRF-CEM leukemia

CC1(C)CCc2c(c3c(c4c(=O)c(O)c(-c5ccc(O)cc5)oc24)OC(C)(C)CC3)O1
GI50 (SK-OV-3 ovarian): 23.2 µM
TGI (SK-OV-3 ovarian): 53.4 µM
GI50 (COLO 205 colon): > 100 µM
TGI (COLO 205 colon): > 100 µM
GI50 (NCI-H23 lung): 75.7 µM
TGI (NCI-H23 lung): > 100 µM
GI50 (HCT-15 colon): > 100 µM
TGI (HCT-15 colon): > 100 µM
GI50 (MDA-MB-435): > 100 µM
TGI (MDA-MB-435): > 100 µM
GI50 (RPMI-8226 leukemia): > 100 µM
TGI (RPMI-8226 leukemia): > 100 µM
GI50 (TK-10 renal): 36.6 µM
TGI (TK-10 renal): > 100 µM
GI50 (HOP-92 NSCLC): 14.6 µM
TGI (HOP-92 NSCLC): 38.2 µM
GI50 (SNB-19 CNS): 33.6 µM
TGI (SNB-19 CNS): > 100 µM
GI50 (M14 melanoma): > 100 µM
TGI (M14 melanoma): > 100 µM
GI50 (SW-620 colon): > 100 µM
TGI (SW-620 colon): > 100 µM
GI50 (HS 578T breast): 69.8 µM
TGI (HS 578T breast): > 100 µM
GI50 (U251 CNS): 24.7 µM
TGI (U251 CNS): 65.5 µM
GI50 (786-0 renal): 37.7 µM
TGI (786-0 renal): > 100 µM
GI50 (UACC-62 melanoma): > 100 µM
TGI (UACC-62 melanoma): > 100 µM
GI50 (DU-145 prostate): 85.1 µM
TGI (DU-145 prostate): > 100 µM
GI50 (SNB-75 CNS): 19.5 µM
TGI (SNB-75 CNS): 41.9 µM
GI50 (SR leukemia): > 100 µM
TGI (SR leukemia): > 100 µM
GI50 (NCI/ADR-RES ovarian): 55.7 µM
TGI (NCI/ADR-RES ovarian): > 100 µM
GI50 (SK-MEL-28 melanoma): > 100 µM
TGI (SK-MEL-28 melanoma): > 100 µM
GI50 (UO-31 renal): > 100 µM
TGI (UO-31 renal): > 100 µM
GI50 (ACHN renal): 48.9 µM
TGI (ACHN renal): > 100 µM
GI50 (A549 NSCLC): > 100 µM
TGI (A549 NSCLC): > 100 µM
GI50 (HOP-62 NSCLC): 24.8 µM
TGI (HOP-62 NSCLC): 54.7 µM
GI50 (LOX IMVI melanoma): 90.5 µM
TGI (LOX IMVI melanoma): > 100 µM
GI50 (SF-295 CNS): 34.3 µM
TGI (SF-295 CNS): > 100 µM
GI50 (PC-3 prostate): > 100 µM
TGI (PC-3 prostate): > 100 µM
GI50 (OVCAR-8 ovarian): 36.3 µM
TGI (OVCAR-8 ovarian): > 100 µM
GI50 (T-47D breast): 72.7 µM
TGI (T-47D breast): > 100 µM
GI50 (MOLT-4 leukemia): 37.2 µM
TGI (MOLT-4 leukemia): > 100 µM
GI50 (HCC-2998 colon): > 100 µM
TGI (HCC-2998 colon): > 100 µM
GI50 (SK-MEL-2 melanoma): 67.2 µM
TGI (SK-MEL-2 melanoma): > 100 µM
GI50 (HCT-116 colon): 57.6 µM
TGI (HCT-116 colon): > 100 µM
GI50 (MDA-MB-231 breast): 28.3 µM
TGI (MDA-MB-231 breast): 84.1 µM
GI50 (KM12 colon): > 100 µM
TGI (KM12 colon): > 100 µM
GI50 (MALME-3M melanoma): > 100 µM
TGI (MALME-3M melanoma): > 100 µM
GI50 (NCI-H226 lung): 58.5 µM
TGI (NCI-H226 lung): > 100 µM
GI50 (SN12C renal): 82.9 µM
TGI (SN12C renal): > 100 µM
GI50 (SF-268 CNS): 30.5 µM
TGI (SF-268 CNS): > 100 µM
GI50 (OVCAR-4 ovarian): > 100 µM
TGI (OVCAR-4 ovarian): > 100 µM
GI50 (SK-MEL-5 melanoma): > 100 µM
TGI (SK-MEL-5 melanoma): > 100 µM
GI50 (NCI-H522 lung): > 100 µM
TGI (NCI-H522 lung): > 100 µM
GI50 (CAKI-1 renal): > 100 µM
TGI (CAKI-1 renal): > 100 µM
GI50 (EKVX NSCLC): 34.5 µM
TGI (EKVX NSCLC): > 100 µM
GI50 (K-562 leukemia): > 100 µM
TGI (K-562 leukemia): > 100 µM
GI50 (IGROV1 ovarian): > 100 µM
TGI (IGROV1 ovarian): > 100 µM
GI50 (MCF7 breast): > 100 µM
TGI (MCF7 breast): > 100 µM
GI50 (NCI-H460 lung): 48.7 µM
TGI (NCI-H460 lung): > 100 µM
GI50 (OVCAR-5 ovarian): > 100 µM
TGI (OVCAR-5 ovarian): > 100 µM
GI50 (HT29 colon): > 100 µM
TGI (HT29 colon): > 100 µM
GI50 (OVCAR-3 ovarian): 49.9 µM
TGI (OVCAR-3 ovarian): > 100 µM
GI50 (CCRF-CEM leukemia): > 100 µM
TGI (CCRF-CEM leukemia): > 100 µM
